The source of these data is ChEMBL document CHEMBL6127058, “Overview of the PRMT6 modulators in cancer treatment: Current progress and emerged opportunity” (Eur J Med Chem, 2024).

The target in assay [1] is T1, Protein arginine N-methyltransferase 1 (Homo sapiens, UniProt Q99873). The assay can be described thus: Inhibition of PRMT1 (unknown origin) by TR-FRET analysis.
In assay [2] the target is Protein arginine N-methyltransferase 8 (Homo sapiens, UniProt Q9NR22). The experiment in a line: Inhibition of PRMT8 (unknown origin).
Protein arginine N-methyltransferase 8, sequence (Q9NR22 whole entry): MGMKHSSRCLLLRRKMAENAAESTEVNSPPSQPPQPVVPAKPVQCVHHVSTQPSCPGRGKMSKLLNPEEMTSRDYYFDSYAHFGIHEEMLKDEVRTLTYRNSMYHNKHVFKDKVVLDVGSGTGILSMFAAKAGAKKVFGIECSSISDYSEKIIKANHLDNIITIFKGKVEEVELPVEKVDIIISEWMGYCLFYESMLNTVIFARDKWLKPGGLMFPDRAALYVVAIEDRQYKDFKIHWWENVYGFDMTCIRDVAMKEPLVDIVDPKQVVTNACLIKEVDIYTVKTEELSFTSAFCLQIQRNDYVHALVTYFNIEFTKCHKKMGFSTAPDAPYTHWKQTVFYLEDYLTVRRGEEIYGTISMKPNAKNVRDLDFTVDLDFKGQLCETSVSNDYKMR
The target of assay [3] is T1, Protein arginine N-methyltransferase 1. The assay can be described thus: Inhibition of PRMT1 (unknown origin).
Assay [4] concerns the target T2, Histone-arginine methyltransferase CARM1 (Homo sapiens, UniProt Q86X55).
T2 sequence (Q86X55 whole entry): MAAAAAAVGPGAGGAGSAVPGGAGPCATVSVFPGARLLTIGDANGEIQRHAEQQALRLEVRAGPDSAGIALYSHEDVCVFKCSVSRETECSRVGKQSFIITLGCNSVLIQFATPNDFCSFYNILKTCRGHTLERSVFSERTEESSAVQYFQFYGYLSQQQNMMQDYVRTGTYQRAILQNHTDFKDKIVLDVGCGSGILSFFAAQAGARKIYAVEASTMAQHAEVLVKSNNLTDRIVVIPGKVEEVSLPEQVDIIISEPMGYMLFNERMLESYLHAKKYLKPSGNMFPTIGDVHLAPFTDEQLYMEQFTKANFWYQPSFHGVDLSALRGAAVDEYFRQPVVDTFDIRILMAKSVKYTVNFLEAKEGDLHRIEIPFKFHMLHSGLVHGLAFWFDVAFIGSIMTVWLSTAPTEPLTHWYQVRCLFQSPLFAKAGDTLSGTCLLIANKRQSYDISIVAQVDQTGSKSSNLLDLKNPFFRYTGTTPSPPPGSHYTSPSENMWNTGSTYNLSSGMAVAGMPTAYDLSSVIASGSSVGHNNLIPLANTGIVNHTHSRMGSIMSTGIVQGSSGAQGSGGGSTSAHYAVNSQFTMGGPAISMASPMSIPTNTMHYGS
The experiment in a line: Inhibition PRMT4 (unknown origin).

For assay [5], the target named is Protein arginine N-methyltransferase 6 (Homo sapiens, UniProt Q96LA8). The assay can be described thus: Inhibition of PRMT6 (unknown origin).
Protein arginine N-methyltransferase 6, sequence (Q96LA8 whole entry): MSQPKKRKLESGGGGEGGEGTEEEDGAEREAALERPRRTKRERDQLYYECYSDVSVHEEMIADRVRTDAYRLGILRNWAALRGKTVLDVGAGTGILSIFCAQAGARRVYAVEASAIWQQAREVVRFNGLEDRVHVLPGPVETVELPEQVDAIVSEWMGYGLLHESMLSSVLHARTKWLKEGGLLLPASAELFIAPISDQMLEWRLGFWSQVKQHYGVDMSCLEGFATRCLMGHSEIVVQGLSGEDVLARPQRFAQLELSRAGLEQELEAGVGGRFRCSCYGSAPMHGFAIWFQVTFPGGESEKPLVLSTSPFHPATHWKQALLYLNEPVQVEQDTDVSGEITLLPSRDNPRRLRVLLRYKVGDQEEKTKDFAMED

T1 sequence (Q99873 whole entry): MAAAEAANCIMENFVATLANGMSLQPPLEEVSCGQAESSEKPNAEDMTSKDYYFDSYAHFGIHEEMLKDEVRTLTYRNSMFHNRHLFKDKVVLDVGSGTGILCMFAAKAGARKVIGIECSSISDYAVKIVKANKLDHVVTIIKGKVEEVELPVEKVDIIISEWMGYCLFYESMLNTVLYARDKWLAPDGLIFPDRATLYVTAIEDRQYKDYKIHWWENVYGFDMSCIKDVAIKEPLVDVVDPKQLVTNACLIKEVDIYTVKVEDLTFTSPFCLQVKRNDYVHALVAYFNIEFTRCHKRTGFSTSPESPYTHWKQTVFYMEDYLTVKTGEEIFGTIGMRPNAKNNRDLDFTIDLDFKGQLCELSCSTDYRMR

As for `CNCCN(C)Cc1ccccc1Sc1ccccc1Cl`, the IC50 (commonly the concentration that gives 50% inhibition) in assay [1] came to 0.0053 µM.
As for `Cc1cc(C)cc([C@@H]2c3cc(C)ccc3NC(=O)CN2C(=O)c2ccc(Br)s2)c1`, the IC50 in assay [2], in assay [3] and in assay [4] was more than 10 µM each time.
`C=CC(C)(C)c1cc(/C=C/C(=O)c2ccc(O)cc2)c(OC)cc1O` [LICOAGROCHACONE A]: it took 22.3 µM to reach half-maximal inhibition in assay [5] (IC50).
